Measured values taken from patent US9487504B2, “Imidazolyl analogs as syk inhibitors” (Merck Sharp & Dohme Corp., priority 2012, dated 2016).

target: T1, recombinant human GST-Syk (Homo sapiens, UniProt P43405); assay: Homogeneous Time-Resolved Fluorescence (HTRF) assay for the recombinant human Syk enzyme; type: biochemical; conditions: ATP 25 μM, 10-dose titration, read-out: rhSYK Activity
T1 construct: purchased Carna Biosciences 08-176
Summary of the method: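 Recombinant GST-hSyk ([…]) was preincubated 10 min at room temperature with inhibitor (0.1% DMSO) in Tris pH 7.5, then reacted for 45 min with 250 nM biotinylated peptide, 5 mM Mg and 25 μM ATP. Phosphorylation was detected by HTRF (Eu-anti-phosphotyrosine/SA-APC). IC50 was derived from a 10-dose titration (10 μM–0.508 nM) with a 4-parameter fit.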

Row | IC50 [nM] | Compound
1 | ≤ 100 | Cc1cc(Nc2nccc(C3CC3)n2)cc(-n2cnc([C@]3(O)CC[C@@H](OC(=O)c4ccccc4)CC3)c2)c1 [Example 42, cis-4-(1-{3-[(4-cyclopropylpyrimidin-2-yl)amino]-5-methylphenyl}-1H-imidazol-4-yl)-4-hydroxycyclohexyl benzoate]
2 | ≤ 100 | Cc1cc(Nc2cc(C)c(F)cn2)nc(-n2cnc([C@]3(O)CC[C@@H](O)CC3)c2)c1 [Example 43, cis-1-(1-{6-[(5-fluoro-4-methylpyridin-2-yl)amino]-4-methylpyridin-2-yl}-1H-imidazol-4-yl)cyclohexane-1,4-diol]
3 | ≤ 100 | Cc1cc(Nc2cc(C)c(Cl)cn2)nc(-n2cnc([C@]3(O)CC[C@@H](O)CC3)c2)c1 [Example 44, cis-1-(1-{6-[(5-chloro-4-methylpyridin-2-yl)amino]-4-methylpyridin-2-yl}-1H-imidazol-4-yl)cyclohexane-1,4-diol]
4 | ≤ 100 | Cc1cc(Nc2cc(C3CC3)ccn2)nc(-n2cnc([C@]3(O)CC[C@@H](O)CC3)c2)c1 [Example 45, cis-1-(1-{6-[(4-cyclopropylpyridin-2-yl)amino]-4-methylpyridin-2-yl}-1H-imidazol-4-yl)cyclohexane-1,4-diol]
5 | ≤ 100 | Cc1ccnc(Nc2cc(C)cc(-n3cnc([C@]4(O)CC[C@@H](O)CC4)c3)n2)c1 [Example 46, cis-1-(1-{4-methyl-6-[(4-methylpyridin-2-yl)amino]pyridin-2-yl}-1H-imidazol-4-yl)cyclohexane-1,4-diol]
6 | ≤ 100 | Cc1cc(Nc2cc(C(C)(C)C)ccn2)nc(-n2cnc([C@]3(O)CC[C@@H](O)CC3)c2)c1 [Example 47, cis-1-(1-{6-[(4-tert-butylpyridin-2-yl)amino]-4-methylpyridin-2-yl}-1H-imidazol-4-yl)cyclohexane-1,4-diol]
7 | ≤ 100 | Cc1cc(Nc2cc(C)c(F)cn2)nc(-n2cnc([C@]3(O)CC[C@@H](OC(=O)c4ccccc4)CC3)c2)c1 [Example 48, cis-4-(1-{6-[(5-fluoro-4-methylpyridin-2-yl)amino]-4-methylpyridin-2-yl}-1H-imidazol-4-yl)-4-hydroxycyclohexyl benzoate]
8 | 100 to 1000 | Cc1cc(Nc2cc(C)c(Cl)cn2)nc(-n2cnc([C@]3(O)CC[C@@H](OC(=O)c4ccccc4)CC3)c2)c1 [Example 49, cis-4-(1-{6-[(5-chloro-4-methylpyridin-2-yl)amino]-4-methylpyridin-2-yl}-1H-imidazol-4-yl)-4-hydroxycyclohexyl benzoate]
9 | ≤ 100 | Cc1cc(Nc2cc(C3CC3)ccn2)nc(-n2cnc([C@]3(O)CC[C@@H](OC(=O)c4ccccc4)CC3)c2)c1 [Example 50, cis-4-(1-{6-[(4-cyclopropylpyridin-2-yl)amino]-4-methylpyridin-2-yl}-1H-imidazol-4-yl)-4-hydroxycyclohexyl benzoate]
10 | ≤ 100 | Cc1ccnc(Nc2cc(C)cc(-n3cnc([C@]4(O)CC[C@@H](OC(=O)c5ccccc5)CC4)c3)n2)c1 [Example 51, cis-4-hydroxy-4-(1-{4-methyl-6-[(4-methylpyridin-2-yl)amino]pyridin-2-yl}-1H-imidazol-4-yl)cyclohexyl benzoate]
11 | ≤ 100 | Cc1cc(Nc2cc(C(C)(C)C)ccn2)nc(-n2cnc([C@]3(O)CC[C@@H](OC(=O)c4ccccc4)CC3)c2)c1 [Example 52, cis-4-(1-{6-[(4-tert-butylpyridin-2-yl)amino]-4-methylpyridin-2-yl}-1H-imidazol-4-yl)-4-hydroxycyclohexyl benzoate]
12 | ≤ 100 | Cc1cc(Nc2nccc(C(F)(F)F)n2)cc(-n2cnc(C3(O)CCC(=O)CC3)c2)c1 [Example 53, 4-hydroxy-4-[1-(3-methyl-5-{[4-(trifluoromethyl)pyrimidin-2-yl]amino}phenyl)-1H-imidazol-4-yl]cyclohexanone]
13 | ≤ 100 | Cc1cc(Nc2nccc(C(F)(F)F)n2)cc(-n2cnc([C@]3(O)CC[C@H](O)[C@@H](C)C3)c2)c1 [Example 54, (1S,3S,4S)-3-methyl-1-[1-(3-methyl-5-{[4-(trifluoromethyl)pyrimidin-2-yl]amino}phenyl)-1H-imidazol-4-yl]cyclohexane-1,4-diol]
14 | ≤ 100 | Cc1cc(Nc2nccc(C(F)(F)F)n2)cc(-n2cnc([C@@]3(O)CC[C@H](O)[C@@H](C)C3)c2)c1 [Example 55, (1R,3S,4S)-3-methyl-1-[1-(3-methyl-5-{[4-(trifluoromethyl)pyrimidin-2-yl]amino}phenyl)-1H-imidazol-4-yl]cyclohexane-1,4-diol]
15 | ≤ 100 | Cc1cc(Nc2nccc(C(F)(F)F)n2)cc(-n2cnc([C@]3(O)CC[C@@H](O)[C@@H](C)C3)c2)c1 [Example 56, (1S,3S,4R)-3-methyl-1-[1-(3-methyl-5-{[4-(trifluoromethyl)pyrimidin-2-yl]amino}phenyl)-1H-imidazol-4-yl]cyclohexane-1,4-diol]
16 | ≤ 100 | Cc1cc(Nc2ncc(F)c(C)n2)cc(-n2cnc([C@]3(O)CC[C@@H](O)CC3)c2)c1 [Example 57, cis-1-(1-{3-[(5-fluoro-4-methylpyrimidin-2-yl)amino]-5-methylphenyl}-1H-imidazol-4-yl)cyclohexane-1,4-diol]

Row | IC50 [nM] | Compound
17 | 100 to 1000 | Cc1cc(Nc2ncc(F)c(C)n2)cc(-n2cnc([C@]3(O)CC[C@@H](OC(=O)c4ccccc4)CC3)c2)c1 [Example 58, cis-4-(1-{3-[(5-fluoro-4-methylpyrimidin-2-yl)amino]-5-methylphenyl}-1H-imidazol-4-yl)-4-hydroxycyclohexyl benzoate]
18 | ≤ 100 | Cc1cc(Nc2ncc(F)c(C3CC3)n2)cc(-n2cnc([C@]3(O)CC[C@@H](O)CC3)c2)c1 [Example 59, cis-1-(1-{3-[(4-cyclopropyl-5-fluoropyrimidin-2-yl)amino]-5-methylphenyl}-1H-imidazol-4-yl)cyclohexane-1,4-diol]
19 | 100 to 1000 | Cc1cc(Nc2ncc(F)c(C3CC3)n2)cc(-n2cnc([C@]3(O)CC[C@@H](OC(=O)c4ccccc4)CC3)c2)c1 [Example 60, cis-4-(1-{3-[(4-cyclopropyl-5-fluoropyrimidin-2-yl)amino]-5-methylphenyl}-1H-imidazol-4-yl)-4-hydroxycyclohexyl benzoate]
20 | ≤ 100 | Cc1cc(Nc2cc(C(F)(F)F)ccn2)nc(-n2cnc([C@]3(O)CC[C@H](O)CC3)c2)c1 [Example 61, trans-1-[1-(4-methyl-6-{[4-(trifluoromethyl)pyridin-2-yl]amino}pyridin-2-yl)-1H-imidazol-4-yl]cyclohexane-1,4-diol]
21 | ≤ 100 | Cc1cc(Nc2cc(C(F)(F)F)ccn2)nc(-n2cnc([C@]3(O)CC[C@@H](O)CC3)c2)c1 [Example 62, cis-1-[1-(4-methyl-6-{[4-(trifluoromethyl)pyridin-2-yl]amino}pyridin-2-yl)-1H-imidazol-4-yl]cyclohexane-1,4-diol]
22 | ≤ 100 | Cc1cc(Nc2cc(C(F)(F)F)ccn2)nc(-n2cnc([C@]3(O)CC[C@H](OC(=O)c4ccccc4)CC3)c2)c1 [Example 63, trans-4-hydroxy-4-[1-(4-methyl-6-{[4-(trifluoromethyl)pyridin-2-yl]amino}pyridin-2-yl)-1H-imidazol-4-yl]cyclohexyl benzoate]
23 | ≤ 100 | Cc1cc(Nc2cc(C(F)(F)F)ccn2)nc(-n2cnc([C@]3(O)CC[C@@H](OC(=O)c4ccccc4)CC3)c2)c1 [Example 64, cis-4-hydroxy-4-[1-(4-methyl-6-{[4-(trifluoromethyl)pyridin-2-yl]amino}pyridin-2-yl)-1H-imidazol-4-yl]cyclohexyl benzoate]
24 | ≤ 100 | Cc1cc(Nc2nccc(C(F)(F)F)n2)cc(-n2cnc(C3(O)CCC(O)CC3)c2)c1 (stereo not drawn) [Example 65, trans-1-[1-(3-methyl-5-{[4-(trifluoromethyl)pyrimidin-2-yl]amino}phenyl)-1H-imidazol-4-yl]cyclohexane-1,4-diol]
25 | 100 to 1000 | Cc1cc(Nc2nccc(C(F)(F)F)n2)cc(-n2cnc([C@]3(O)CC[C@H](OC(=O)c4ccccc4)CC3)c2)c1 [Example 66, trans-4-hydroxy-4-[1-(3-methyl-5-{[4-(trifluoromethyl)pyrimidin-2-yl]amino}phenyl)-1H-imidazol-4-yl]cyclohexyl benzoate]
26 | ≤ 100 | Cc1cc(Nc2nccc(C(F)(F)F)n2)cc(-n2cc(C(=O)O)nc2C)c1 [Example 67, 2-Methyl-1-(3-methyl-5-{[4-(trifluoromethyl)pyrimidin-2-yl]amino}phenyl)-1H-imidazole-4-carboxylic acid]
27 | 100 to 1000 | Cc1cc(Nc2nccc(C(F)(F)F)n2)cc(-n2cc(C(C)(C)O)nc2C)c1 [Example 68, 2-[2-Methyl-1-(3-methyl-5-{[4-(trifluoromethyl)pyrimidin-2-yl]amino}phenyl)-1H-imidazol-4-yl]propan-2-ol]
28 | 100 to 1000 | COC(=O)c1cn(-c2cccc(Nc3cc(Cl)ccn3)n2)cn1 [Example 69, Methyl 1-{6-[(4-chloropyridin-2-yl)amino]pyridin-2-yl}-1H-imidazole-4-carboxylate]
29 | 100 to 1000 | O=C(c1cn(-c2cccc(Nc3nccc(C(F)(F)F)n3)c2)cn1)N1CCCC1 [Example 70, Pyrrolidin-1-yl[1-(3-{[4-(trifluoromethyl)pyrimidin-2-yl]amino}phenyl)-1H-imidazol-4-yl]methanone]
30 | ≤ 100 | Cc1cc(Nc2nccc(C(F)(F)F)n2)cc(-n2cnc(-c3ccc(C(=O)O)cc3)c2)c1 [Example 71, 4-[1-(3-methyl-5-{[4-(trifluoromethyl)pyrimidin-2-yl]amino}-phenyl)-1H-imidazol-4-yl]benzoic acid]
31 | 100 to 1000 | Cc1cc(Nc2nccc(C)n2)cc(-n2cnc3cc(C(=O)O)ccc32)c1 [Example 72, 1-{3-methyl-5-[(4-methylpyrimidin-2-yl)amino]phenyl}-1H-benzimidazole-5-carboxylic acid]

same assay, conditions: ATP 25 μM, 10-dose titration, read-out: rhSYK IC50

Row | IC50 [nM] | Compound
32 | 1.38 | Cc1cc(Nc2cc(C3CC3)ccn2)nc(-n2cnc([C@]3(O)CC[C@@H](O)CC3)c2)c1 [Example 45, cis-1-(1-{6-[(4-cyclopropylpyridin-2-yl)amino]-4-methylpyridin-2-yl}-1H-imidazol-4-yl)cyclohexane-1,4-diol]
33 | 1.36 | Cc1cc(Nc2cc(C(F)(F)F)ccn2)nc(-n2cnc([C@]3(O)CC[C@@H](O)CC3)c2)c1 [Example 62, cis-1-[1-(4-methyl-6-{[4-(trifluoromethyl)pyridin-2-yl]amino}pyridin-2-yl)-1H-imidazol-4-yl]cyclohexane-1,4-diol]
34 | 1.68 | Cc1cc(Nc2nccc(C(F)(F)F)n2)cc(-n2cnc(-c3ccc(C(=O)O)cc3)c2)c1 [Example 71, 4-[1-(3-methyl-5-{[4-(trifluoromethyl)pyrimidin-2-yl]amino}-phenyl)-1H-imidazol-4-yl]benzoic acid]
